Assay results: patent US20250195536A1, “BICYCLOOCTANE KRAS INHIBITORS” (Incyte Corporation, priority 2023, published 2025)

Tests used:
KRAS G12V = KRAS G12V (Homo sapiens, UniProt P01116, G12V); assay: GDP-GTP exchange assay (KRAS G12V); type: biochemical; conditions: bodipy-GDP/GppNHp exchange with SOS1; 3 h incubation after GppNHp-SOS1
Method: (§1) The inhibitor potency of the exemplified compounds was determined in a fluorescence based guanine nucleotide exchange assay, which measures the exchange of bodipy-GDP (fluorescently labeled GDP) for GppNHp (Non-hydrolyzable GTP analog) to generate the active state of KRAS in the presence of SOS1 (guanine nucleotide exchange factor). Inhibitors were serially diluted in DMSO and a volume of 0.1 μL was transferred to the wells of a black low volume 384-well plate. 5 μL/well volume of bodipy-loaded KRAS G12D diluted to 2.5 nM in assay buffer (25 mM Hepes pH 7.5, 50 mM NaCl, 10 mM MgCl2 and 0.01% Brij-35) was added to the plate and pre-incubated with inhibitor for 4 h at r.t. Appropriate controls (enzyme with no inhibitor or with a G12D inhibitor) were included on the plate. The exchange was initiated by the addition of a 5 μL/well volume containing 1 mM GppNHp and 300 nM SOS1 in assay buffer. The 10 μL/well reaction concentration of the bodipy-loaded KRAS G12D, GppNHp, and SOS1 were 2.5 nM, 500 μM, and 150 nM, respectively. The reaction plates were incubated at r.t. for 2 h, a time estimated for complete GDP-GTP exchange in the absence of inhibitor. For the KRAS G12V mutant, similar guanine nucleotide exchange assays were used with 2.5 nM as final concentration for the bodipy loaded KRAS proteins and 3 h incubation after adding GppNHp-SOS1 mixture. A cyclic peptide described to selectively bind G12D mutant (Sakamoto et al., BBRC 484.3 (2017), 605-611) or internal compounds with confirmed binding were used as positive controls in the assay plates. Fluorescence intensities were measured on a PheraStar plate reader instrument (BMG Labtech) with excitation at 485 nm and emission at 520 nm.
(§2) Either GraphPad prism or Genedata Screener SmartFit was used to analyze the data. The IC50 values were derived by fitting the data to a four parameter logistic equation producing a sigmoidal dose-response curve with a variable Hill coefficient.
(§3) The symbol “⬆” indicates IC50 100 nM, “⬆⬆” indicates IC50 >100 nM but ≤1 μM; and “⬆⬆⬆” indicates IC50 is >1 μM but ≤5 μM, “⬆⬆⬆⬆” indicates IC50 is >5 μM but ≤10 μM. “NA” indicates IC50 not available.

KRAS G12D = KRAS G12D (Homo sapiens, UniProt P01116, G12D); assay: GDP-GTP exchange assay (KRAS G12D); type: biochemical; conditions: bodipy-GDP/GppNHp exchange with SOS1; 4 h pre-incubation, 2 h reaction
Method: as §1, §2, §3
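Also: one dagger IC50 up to 100 nM and two daggers above 100 nM up to 1 μM.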

Sequence of KRAS G12V (P01116 1-188 isoform P01116-2 G12V): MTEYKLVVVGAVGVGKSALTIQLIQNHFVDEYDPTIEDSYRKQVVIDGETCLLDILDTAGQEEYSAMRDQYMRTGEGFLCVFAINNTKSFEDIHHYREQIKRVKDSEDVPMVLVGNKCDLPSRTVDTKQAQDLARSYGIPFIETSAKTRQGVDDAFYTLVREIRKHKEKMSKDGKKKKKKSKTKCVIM
Sequence of KRAS G12D (P01116 1-188 isoform P01116-2 G12D): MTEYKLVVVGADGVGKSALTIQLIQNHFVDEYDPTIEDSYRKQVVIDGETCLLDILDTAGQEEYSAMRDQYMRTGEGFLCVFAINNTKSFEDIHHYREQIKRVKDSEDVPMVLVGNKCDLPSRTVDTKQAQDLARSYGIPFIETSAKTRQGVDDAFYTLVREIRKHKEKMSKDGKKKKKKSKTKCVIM

Row | SMILES | G12V_exchange (KRAS_G12V exchange assay IC50) (KRAS G12V) | G12D_exchange (KRAS_G12D exchange assay IC50) (KRAS G12D)
1 | Cc1c(F)ccnc1N1C[C@@H]2C[C@H](C1)N(C(=O)C1CC1)[C@H]2c1cc2c(C)nc3c(F)c(-c4cccc(Cl)c4Cl)c(CCC#N)cc3c2n1[C@H]1[C@H]2CN[C@@H]1C2 (atropisomer, axis not shown; (Ra)) [Example 75, 3-((Ra)-1-((1R,4R,5S)-2-azabicyclo[2.1.1]hexan-5-yl)-2-((1S,5R,7R)-6-(cyclopropanecarbonyl)-3-(4-fluoro-3-methylpyridin-2-yl)-3,6-diazabicyclo[3.2.1]octan-7-yl)-7-(2,3-dichlorophenyl)-6-fluoro-4-methyl-1H-pyrrolo[3,2-c]quinolin-8-yl)propanenitrile] | † | ††
2 | Cc1nc2c(F)c(-c3cccc(Cl)c3Cl)c(CCC#N)cc2c2c1cc([C@H]1[C@H]3C[C@H](CN(c4cc(C(C)(F)F)ncn4)C3)N1C(=O)CO)n2[C@H]1[C@H]2CN[C@@H]1C2 (atropisomer, axis not shown; (Ra)) [Example 129, 3-((Ra)-1-((1R,4R,5S)-2-azabicyclo[2.1.1]hexan-5-yl)-7-(2,3-dichlorophenyl)-2-((1 S,5R,7R)-3-(6-(1,1-difluoroethyl)pyrimidin-4-yl)-6-(2-hydroxyacetyl)-3,6-diazabicyclo[3.2.1]octan-7-yl)-6-fluoro-4-methyl-1H-pyrrolo[3,2-c]quinolin-8-yl)propanenitrile] | † | –
3 | Cc1nc2c(F)c(-c3cccc(Cl)c3Cl)c(CCC#N)cc2c2c1cc([C@H]1[C@H]3C[C@H](CN(c4ncc(C(F)F)s4)C3)N1C(=O)C1CC1)n2[C@H]1[C@H]2CN[C@@H]1C2 (atropisomer, axis not shown; (Ra)) [Example 102, 3-((Ra)-1-((1R,4R,5S)-2-azabicyclo[2.1.1]hexan-5-yl)-2-((1S,5R,7R)-6-(cyclopropanecarbonyl)-3-(5-(difluoromethyl)thiazol-2-yl)-3,6-diazabicyclo[3.2.1]octan-7-yl)-7-(2,3-dichlorophenyl)-6-fluoro-4-methyl-1H-pyrrolo[3,2-c]quinolin-8-yl)propanenitrile] | † | †
4 | Cc1nc2c(F)c(-c3cccc(Cl)c3Cl)c(CCC#N)cc2c2c1cc([C@H]1[C@H]3C[C@H](CN(c4ncc(C)n4C)C3)N1C(=O)C1CC1)n2[C@H]1[C@H]2CN[C@@H]1C2 (atropisomer, axis not shown; (Ra)) [Example 101, 3-((Ra)-1-((1R,4R,5S)-2-azabicyclo[2.1.1]hexan-5-yl)-2-((1S,5R,7R)-6-(cyclopropanecarbonyl)-3-(1,5-dimethyl-1H-imidazol-2-yl)-3,6-diazabicyclo[3.2.1]octan-7-yl)-7-(2,3-dichlorophenyl)-6-fluoro-4-methyl-1H-pyrrolo[3,2-c]quinolin-8-yl)propanenitrile] | † | †
5 | Cc1nc2c(F)c(-c3cccc(Cl)c3Cl)c(CCC#N)cc2c2c1cc(C1C3CC(CN(C4CCCCC4)C3)N1C(=O)C1CC1)n2C1C2CNC1C2 (atropisomer, axis not shown; (Ra)) [Example 114, 3-((Ra)-1-((1R,4R,5S)-2-Azabicyclo[2.1.1]hexan-5-yl)-2-((1R,5R,7R)-3-cyclohexyl-6-(cyclopropanecarbonyl)-3,6-diazabicyclo[3.2.1]octan-7-yl)-7-(2,3-dichlorophenyl)-6-fluoro-4-methyl-1H-pyrrolo[3,2-c]quinolin-8-yl)propanenitrile] | † | †
6 | Cc1nc2c(F)c(-c3cccc(Cl)c3Cl)c(CCC#N)cc2c2c1cc([C@H]1[C@H]3C[C@H](CN(c4ccnc(OCC5CC5)c4)C3)N1C(=O)C1CC1)n2[C@H]1[C@H]2CN[C@@H]1C2 (atropisomer, axis not shown; (Ra)) [Example 82, 3-((Ra)-1-((1R,4R,5S)-2-azabicyclo[2.1.1]hexan-5-yl)-2-((1S,5R,7R)-6-(cyclopropanecarbonyl)-3-(2-(cyclopropylmethoxy)pyridin-4-yl)-3,6-diazabicyclo[3.2.1]octan-7-yl)-7-(2,3-dichlorophenyl)-6-fluoro-4-methyl-1H-pyrrolo[3,2-c]quinolin-8-yl)propanenitrile] | † | †
7 | Cc1nc2c(F)c(-c3cccc(Cl)c3Cl)c(CCC#N)cc2c2c1cc([C@H]1[C@H]3C[C@H](CN(c4ccncc4)C3)N1C(=O)C1CC1)n2[C@H]1[C@H]2CN[C@@H]1C2 (atropisomer, axis not shown; (Ra)) [Example 37, 3-((Ra)-1-((1R,4R,5S)-2-azabicyclo[2.1.1]hexan-5-yl)-2-((1S,5R,7R)-6-(cyclopropanecarbonyl)-3-(pyridin-4-yl)-3,6-diazabicyclo[3.2.1]octan-7-yl)-7-(2,3-dichlorophenyl)-6-fluoro-4-methyl-1H-pyrrolo[3,2-c]quinolin-8-yl)propanenitrile] | † | †
8 | Cc1nc2c(F)c(-c3cccc(Cl)c3Cl)c(CCC#N)cc2c2c1cc([C@H]1[C@H]3C[C@H](CN(c4cc(C)n(C)c(=O)c4)C3)N1C(=O)C1CC1)n2[C@H]1[C@H]2CN[C@@H]1C2 (atropisomer, axis not shown; (Ra)) [Example 66, 3-((Ra)-1-((1R,4R,5S)-2-azabicyclo[2.1.1]hexan-5-yl)-2-((1S,5R,7R)-6-(cyclopropanecarbonyl)-3-(1,6-dimethyl-2-oxo-1,2-dihydropyridin-4-yl)-3,6-diazabicyclo[3.2.1]octan-7-yl)-7-(2,3-dichlorophenyl)-6-fluoro-4-methyl-1H-pyrrolo[3,2-c]quinolin-8-yl)propanenitrile] | † | †
9 | Cc1nc2c(F)c(-c3cccc(Cl)c3Cl)c(CCC#N)cc2c2c1cc([C@H]1[C@H]3C[C@H](CN(C(=O)NCC(F)(F)F)C3)N1C(=O)C1CC1)n2[C@H]1[C@H]2CN[C@@H]1C2 (atropisomer, axis not shown; (Ra)) [Example 109, (1 S,5R,7R)-7-((Ra)-1-((1R,4R,5S)-2-Azabicyclo[2.1.1]hexan-5-yl)-8-(2-cyanoethyl)-7-(2,3-dichlorophenyl)-6-fluoro-4-methyl-1H-pyrrolo[3,2-c]quinolin-2-yl)-6-(cyclopropanecarbonyl)-N-(2,2,2-trifluoroethyl)-3,6-diazabicyclo[3.2.1]octane-3-carboxamide] | † | †
10 | Cc1nc2c(F)c(-c3cccc(Cl)c3Cl)c(CCC#N)cc2c2c1cc([C@H]1[C@H]3C[C@H](C(=O)N(c4ccc(C(F)(F)F)cc4)C3)N1C(=O)C1CC1)n2[C@H]1[C@H]2CN[C@@H]1C2 (atropisomer, axis not shown; (Ra)) [Example 120b, 3-((Ra)-1-((1R,4R,5S)-2-Azabicyclo[2.1.1]hexan-5-yl)-2-((1S,5R,7R)-6-(cyclopropanecarbonyl)-4-oxo-3-(4-(trifluoromethyl)phenyl)-3,6-diazabicyclo[3.2.1]octan-7-yl)-7-(2,3-dichlorophenyl)-6-fluoro-4-methyl-1H-pyrrolo[3,2-c]quinolin-8-yl)propanenitrile] | † | †
11 | Cc1nc2c(F)c(-c3cccc(Cl)c3Cl)c(CCC#N)cc2c2c1cc([C@H]1[C@H]3C[C@H](CN(c4cnn(C)c4)C3)N1C(=O)C1CC1)n2[C@H]1[C@H]2CN[C@@H]1C2 (atropisomer, axis not shown; (Ra)) [Example 11, 3-((Ra)-1-((1R,4R,5S)-2-azabicyclo[2.1.1]hexan-5-yl)-2-((1S,5R,7R)-6-(cyclopropanecarbonyl)-3-(1-methyl-1H-pyrazol-4-yl)-3,6-diazabicyclo[3.2.1]octan-7-yl)-7-(2,3-dichlorophenyl)-6-fluoro-4-methyl-1H-pyrrolo[3,2-c]quinolin-8-yl)propanenitrile] | † | †
12 | Cc1nc2c(F)c(-c3cccc(Cl)c3Cl)c(CCC#N)cc2c2c1cc([C@H]1[C@H]3C[C@H](CN(c4ccccc4C(F)(F)F)C3)N1C(=O)C1CC1)n2[C@H]1[C@H]2CN[C@@H]1C2 (atropisomer, axis not shown; (Ra)) [Example 16, 3-((Ra)-1-((1R,4R,5S)-2-azabicyclo[2.1.1]hexan-5-yl)-2-((1S,5R,7R)-6-(cyclopropanecarbonyl)-3-(2-(trifluoromethyl)phenyl)-3,6-diazabicyclo[3.2.1]octan-7-yl)-7-(2,3-dichlorophenyl)-6-fluoro-4-methyl-1H-pyrrolo[3,2-c]quinolin-8-yl)propanenitrile] | ††† | †††
